According to the NIST ThermoML archive (doi:10.1016/j.jct.2004.07.024):

Assay: xn = mol fraction of the nth substance listed
Details: 101.33 kPa, Liquid

C=Cc1ccccc1 [styrene] + C[S+](C)[O-]
Details	mass density [kg/m3]
293.15 K, x1 = 0.062	1081.91
293.15 K, x1 = 0.1289	1064.06
293.15 K, x1 = 0.2169	1042.53
293.15 K, x1 = 0.2956	1024.85
293.15 K, x1 = 0.3596	1011.37
293.15 K, x1 = 0.4103	1001.24
293.15 K, x1 = 0.4596	991.74
293.15 K, x1 = 0.5023	983.85
293.15 K, x1 = 0.5689	972.01
293.15 K, x1 = 0.626	962.31
293.15 K, x1 = 0.7025	949.86
293.15 K, x1 = 0.7865	936.88
293.15 K, x1 = 0.8595	926.02
293.15 K, x1 = 0.9312	915.7
303.15 K, x1 = 0.0852	1066.12
303.15 K, x1 = 0.1495	1049.28
303.15 K, x1 = 0.2015	1036.5
303.15 K, x1 = 0.2695	1020.82
303.15 K, x1 = 0.3351	1006.61
303.15 K, x1 = 0.4055	992.33
303.15 K, x1 = 0.4824	977.63
303.15 K, x1 = 0.5588	963.89
303.15 K, x1 = 0.6196	953.53
303.15 K, x1 = 0.6726	944.85
303.15 K, x1 = 0.7369	934.68
303.15 K, x1 = 0.8069	924.05
303.15 K, x1 = 0.8756	913.99
303.15 K, x1 = 0.9458	904.01
313.15 K, x1 = 0.0665	1060.82
313.15 K, x1 = 0.1856	1029.88
313.15 K, x1 = 0.2581	1012.95
313.15 K, x1 = 0.3296	997.38
313.15 K, x1 = 0.3895	985.13
313.15 K, x1 = 0.4469	973.98
313.15 K, x1 = 0.5132	961.75
313.15 K, x1 = 0.5958	947.37
313.15 K, x1 = 0.6553	937.53
313.15 K, x1 = 0.7125	928.47
313.15 K, x1 = 0.7665	920.19
313.15 K, x1 = 0.8269	911.23
313.15 K, x1 = 0.8801	903.57
313.15 K, x1 = 0.9485	893.98
323.15 K, x1 = 0.0653	1050.77
323.15 K, x1 = 0.1856	1019.46
323.15 K, x1 = 0.2513	1004.06
323.15 K, x1 = 0.3257	987.81
323.15 K, x1 = 0.3969	973.33
323.15 K, x1 = 0.4582	961.55
323.15 K, x1 = 0.5296	948.61
323.15 K, x1 = 0.5701	941.56
323.15 K, x1 = 0.6352	930.72
323.15 K, x1 = 0.6925	921.57
323.15 K, x1 = 0.7468	913.21
323.15 K, x1 = 0.8169	902.83
323.15 K, x1 = 0.8825	893.48
323.15 K, x1 = 0.9555	883.37
333.15 K, x1 = 0.0626	1041.08
333.15 K, x1 = 0.1745	1011.71
333.15 K, x1 = 0.2469	994.63
333.15 K, x1 = 0.2963	983.69
333.15 K, x1 = 0.3458	973.27
333.15 K, x1 = 0.3899	964.37
333.15 K, x1 = 0.4525	952.34
333.15 K, x1 = 0.5252	939.14
333.15 K, x1 = 0.6053	925.5
333.15 K, x1 = 0.6852	912.68
333.15 K, x1 = 0.7562	901.86
333.15 K, x1 = 0.8362	890.23
333.15 K, x1 = 0.8826	883.72
333.15 K, x1 = 0.9332	876.75
343.15 K, x1 = 0.0866	1023.99
343.15 K, x1 = 0.1762	1000.88
343.15 K, x1 = 0.2459	984.45
343.15 K, x1 = 0.2856	975.61
343.15 K, x1 = 0.3595	960.11
343.15 K, x1 = 0.4041	951.25
343.15 K, x1 = 0.4896	935.26
343.15 K, x1 = 0.5695	921.33
343.15 K, x1 = 0.6254	912.1
343.15 K, x1 = 0.6925	901.53
343.15 K, x1 = 0.7569	891.83
343.15 K, x1 = 0.8042	884.96
343.15 K, x1 = 0.8685	875.91
343.15 K, x1 = 0.9344	866.93
353.15 K, x1 = 0.0659	1019.29
353.15 K, x1 = 0.1289	1002.33
353.15 K, x1 = 0.1865	987.92
353.15 K, x1 = 0.2415	975.04
353.15 K, x1 = 0.3063	960.8
353.15 K, x1 = 0.3895	943.8
353.15 K, x1 = 0.4589	930.59
353.15 K, x1 = 0.5362	916.84
353.15 K, x1 = 0.6089	904.68
353.15 K, x1 = 0.6812	893.25
353.15 K, x1 = 0.7462	883.47
353.15 K, x1 = 0.8126	873.91
353.15 K, x1 = 0.8865	863.68
353.15 K, x1 = 0.9522	854.91

C[S+](C)[O-] [dimethyl sulfoxide] + Cc1ccccc1
Details	mass density [kg/m3]
293.15 K, x2 = 0.0689	1077.87
293.15 K, x2 = 0.1505	1053.27
293.15 K, x2 = 0.2269	1031.56
293.15 K, x2 = 0.3036	1010.99
293.15 K, x2 = 0.3758	992.64
293.15 K, x2 = 0.4568	973.24
293.15 K, x2 = 0.5177	959.33
293.15 K, x2 = 0.5769	946.41
293.15 K, x2 = 0.6342	934.37
293.15 K, x2 = 0.6885	923.31
293.15 K, x2 = 0.7512	911.04
293.15 K, x2 = 0.8181	898.38
293.15 K, x2 = 0.8856	886.05
293.15 K, x2 = 0.9553	873.71
303.15 K, x2 = 0.0652	1069.85
303.15 K, x2 = 0.1295	1050.38
303.15 K, x2 = 0.1806	1035.51
303.15 K, x2 = 0.2563	1014.57
303.15 K, x2 = 0.3098	1000.5
303.15 K, x2 = 0.3845	981.74
303.15 K, x2 = 0.4456	967.18
303.15 K, x2 = 0.5169	950.98
303.15 K, x2 = 0.5813	937.04
303.15 K, x2 = 0.6645	919.88
303.15 K, x2 = 0.7499	903.18
303.15 K, x2 = 0.8114	891.64
303.15 K, x2 = 0.8802	879.15
303.15 K, x2 = 0.9532	866.39
313.15 K, x2 = 0.0661	1059.41
313.15 K, x2 = 0.1202	1043.16
313.15 K, x2 = 0.1891	1023.36
313.15 K, x2 = 0.2403	1009.32
313.15 K, x2 = 0.2945	995.06
313.15 K, x2 = 0.3615	978.24
313.15 K, x2 = 0.4369	960.28
313.15 K, x2 = 0.5156	942.59
313.15 K, x2 = 0.5813	928.56
313.15 K, x2 = 0.6558	913.41
313.15 K, x2 = 0.7267	899.63
313.15 K, x2 = 0.7956	886.78
313.15 K, x2 = 0.8821	871.32
313.15 K, x2 = 0.9448	860.52
323.15 K, x2 = 0.0884	1042.41
323.15 K, x2 = 0.1236	1032.08
323.15 K, x2 = 0.1869	1014.1
323.15 K, x2 = 0.2536	996.08
323.15 K, x2 = 0.3285	976.94
323.15 K, x2 = 0.3996	959.75
323.15 K, x2 = 0.4501	948.11
323.15 K, x2 = 0.4969	937.7
323.15 K, x2 = 0.5563	925
323.15 K, x2 = 0.616	912.74
323.15 K, x2 = 0.6725	901.61
323.15 K, x2 = 0.7562	885.79
323.15 K, x2 = 0.8532	868.42
323.15 K, x2 = 0.9458	852.63
333.15 K, x2 = 0.0598	1040.93
333.15 K, x2 = 0.1436	1016.4
333.15 K, x2 = 0.2258	993.84
333.15 K, x2 = 0.2931	976.44
333.15 K, x2 = 0.3652	958.78
333.15 K, x2 = 0.4112	948.06
333.15 K, x2 = 0.4859	931.36
333.15 K, x2 = 0.5301	921.94
333.15 K, x2 = 0.5965	908.31
333.15 K, x2 = 0.6789	892.24
333.15 K, x2 = 0.7215	884.23
333.15 K, x2 = 0.7899	871.86
333.15 K, x2 = 0.8512	861.15
333.15 K, x2 = 0.9503	844.53
343.15 K, x2 = 0.0599	1030.68
343.15 K, x2 = 0.1102	1015.93
343.15 K, x2 = 0.1798	996.46
343.15 K, x2 = 0.2549	976.61
343.15 K, x2 = 0.3169	961.13
343.15 K, x2 = 0.3858	944.75
343.15 K, x2 = 0.4405	932.38
343.15 K, x2 = 0.5258	914.08
343.15 K, x2 = 0.5936	900.34
343.15 K, x2 = 0.6678	886.01
343.15 K, x2 = 0.7166	876.96
343.15 K, x2 = 0.7925	863.42
343.15 K, x2 = 0.8792	848.65
343.15 K, x2 = 0.9552	836.24
353.15 K, x2 = 0.0801	1014.55
353.15 K, x2 = 0.1526	994.06
353.15 K, x2 = 0.2215	975.63
353.15 K, x2 = 0.2869	959.04
353.15 K, x2 = 0.3568	942.26
353.15 K, x2 = 0.4205	927.79
353.15 K, x2 = 0.4956	911.6
353.15 K, x2 = 0.5723	895.96
353.15 K, x2 = 0.6321	884.4
353.15 K, x2 = 0.7058	870.71
353.15 K, x2 = 0.768	859.69
353.15 K, x2 = 0.8363	848.04
353.15 K, x2 = 0.8913	838.96
353.15 K, x2 = 0.9524	829.17
